Data as given in US20250353873A1, “COMPOUNDS AND METHODS FOR MODULATING APOE EXPRESSION” (Ionis Pharmaceuticals, Inc., priority 2024, published 2025).
Strand notation (5' to 3'): a small letter for the sugar, then the base; units joined by * are phosphorothioate-linked, units joined directly phosphodiester-linked; [ ] holds rarer units or linkages, { } end groups; capitals alone tell only the bases. [ms] = mesyl phosphoramidate linkage; e = 2'-O-(2-methoxyethyl) (MOE); k = constrained ethyl (cEt); [5mC] = 5-methylcytosine; d = 2'-deoxy (DNA)

How the values were obtained:
human APOE RNA [1] = test: Activity in APOE C57BL/6NTac-Apoeem7250 knock-in mice, single ICV bolus, 20 weeks (Example 13); format: in vivo; conditions: single ICV bolus 300 μg, 20 weeks post treatment, normalized to mouse Ppia
Experimental: (§1) Modified oligonucleotides described above were tested in the APOE C57BL/6NTac-Apoeem7250 knock-in mouse model described above.
APOE C57BL/6NTac-Apoeem7250 knock-in mice were divided into groups of 4 mice each. Each mouse received a single ICV bolus of 300 μg of modified oligonucleotide. A group of 2-4 mice received a single ICV bolus with PBS as a negative control.
(§2) Twenty weeks post treatment, mice were sacrificed and RNA was extracted from cortical brain tissue and spinal cord for quantitative real-time RT-PCR analysis of RNA expression of APOE using human primer probe set RTS3073 (described herein above). APOE RNA levels were normalized to mouse Ppia. Mouse Ppia was amplified using primer probe set m_cyclo24 (described herein above). Results are presented as percent human APOE RNA relative to the amount of human APOE RNA in PBS treated animals, (% control). Each experiment is identified in separate tables below.

human APOE RNA [2] = test: Dose-dependent inhibition of human APOE RNA in HepG2 cells, electroporation, 50,000 cells per well, RT-PCR normalized to GAPDH (Example 4, Tables 8-10); format: cell-based; conditions: HepG2, electroporation, 16-hour treatment
Procedure, shortened: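 Readout is percent APOE RNA versus untreated controls, measured by RT-PCR (primer probe set RTS3073) and normalized to human GAPDH. Modified oligonucleotides were delivered by electroporation at varying doses into HepG2 cells plated at 50,000 per well.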

human APOE RNA [3] = test: Activity in APOE C57BL/6NTac-Apoeem7250 knock-in mice, single ICV bolus, 4 weeks (Example 10); format: in vivo; conditions: C57BL/6NTac-Apoeem7250 knock-in mice, single ICV bolus 300 μg, 4 weeks (Table 22)
Experimental: as §1
APOE C57BL/6NTac-Apoeem7250 knock-in mice were divided into groups of 2-4 mice each. Each mouse received a single ICV bolus of 300 μg of modified oligonucleotide. A group of 3-4 mice received a single ICV bolus with PBS as a negative control.
as §2, with “Four” for “Twenty”

human APOE RNA [4] = test: Activity in APOE C57BL/6NTac-Apoeem7250 knock-in mice, single ICV bolus, 16 weeks (Example 12); format: in vivo; conditions: single ICV bolus 300 μg, 16 weeks post treatment, normalized to mouse Ppia
Procedure, shortened: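 A single 300 μg intracerebroventricular dose was given, with PBS-treated mice as reference; cortical and spinal cord tissue was taken 16 weeks later. RT-qPCR quantified human APOE RNA, Ppia-normalized, expressed relative to PBS animals (% control).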

human APOE RNA [5] = test: Dose-dependent inhibition of human APOE RNA in HepG2 cells, electroporation, 24 hours (Example 6); format: cell-based
Experimental: Modified oligonucleotides selected from the examples above were tested at various doses in HepG2.
HepG2 cells plated at a density of 50,000 cells per well were treated by electroporation with various concentrations of modified oligonucleotide as specified in the tables below. […] APOE RNA levels were measured using the human primer probe set RTS3073 (described herein above). APOE RNA levels were normalized to human GAPDH. Human GAPDH was amplified using human primer probe set RTS 104 (described herein above). Results are presented as percent APOE RNA, relative to the amount of APOE RNA in untreated control cells (% UTC). The half maximal inhibitory concentration (IC50) of each modified oligonucleotide was calculated in GraphPad Prism 10 (GraphPad Software, San Diego, CA) and is also presented in the tables below.

Row | Substance | APOE RNA (% control) Cortex (human APOE RNA [1]) | APOE RNA (% control) Spinal Cord (human APOE RNA [1]) | APOE RNA (% control) Cortex (human APOE RNA [3]) | APOE RNA (% control) Spinal Cord (human APOE RNA [3]) | APOE RNA (% control) Cortex (human APOE RNA [4]) | APOE RNA (% control) Spinal Cord (human APOE RNA [4]) | IC50 (human APOE RNA [5]) | APOE RNA (% UTC) (human APOE RNA [5]; 5 nM) | APOE RNA (% UTC) (human APOE RNA [5]; 13 nM) | APOE RNA (% UTC) (human APOE RNA [5]; 33 nM) | APOE RNA (% UTC) (human APOE RNA [5]; 82 nM) | APOE RNA (% UTC) (human APOE RNA [5]; 205 nM) | APOE RNA (% UTC) (human APOE RNA [5]; 512 nM) | APOE RNA (% UTC) (human APOE RNA [5]; 1,280 nM) | APOE RNA (% UTC) (human APOE RNA [5]; 3,200 nM) | APOE RNA (% UTC) (human APOE RNA [5]; 8,000 nM) | APOE RNA (% UTC) (human APOE RNA [5]; 20,000 nM) | other results
1 | 1757584 (eT*eTeGeGeT*dG*dA*dA*dT*d[5mC]*dT*dT*dT*dA*dT*kTkAeA*eA*e[5mC]; antisense) [Compound 1757584] | 92 % control | 95 % control | – | – | – | – | – | – | – | – | – | – | – | – | – | – | – | –
2 | 1757570 (eA*e[5mC]eTeTkG*dG*dT*dG*dA*dA*dT*d[5mC]*dT*dT*dT*kAkTeT*eA*eA; antisense) [Compound 1757570] | 64 % control | 48 % control | – | – | – | – | – | – | – | – | – | – | – | – | – | – | – | APOE RNA (% UTC) (human APOE RNA [2]; 5 nM): 154 % UTC; APOE RNA (% UTC) (human APOE RNA [2]; 82 nM): 151 % UTC; APOE RNA (% UTC) (human APOE RNA [2]; 205 nM): 62 % UTC; APOE RNA (% UTC) (human APOE RNA [2]; 512 nM): 26 % UTC; APOE RNA (% UTC) (human APOE RNA [2]; 1,280 nM): 42 % UTC; APOE RNA (% UTC) (human APOE RNA [2]; 3,200 nM): 22 % UTC; APOE RNA (% UTC) (human APOE RNA [2]; 8,000 nM): 18 % UTC; APOE RNA (% UTC) (human APOE RNA [2]; 20,000 nM): 18 % UTC; IC50 (human APOE RNA [2]): 580 nM
3 | 1757544: mixed MOE/cEt gapmer TTGGTGAATCTTTATTAA, sugar ekeeeddddddddeeeee, linkages soossssssssssooss (eT*kTeGeG*eT*dG*dA*dA*dT*d[5mC]*dT*dT*dT*eAeTeT*eA*eA) [compound 1757544] | 101 % control | 96 % control | – | – | – | – | – | – | – | – | – | – | – | – | – | – | – | APOE RNA (% UTC) (human APOE RNA [2]; 5 nM): 104 % UTC; APOE RNA (% UTC) (human APOE RNA [2]; 13 nM): 86 % UTC; APOE RNA (% UTC) (human APOE RNA [2]; 33 nM): 100 % UTC; APOE RNA (% UTC) (human APOE RNA [2]; 82 nM): 111 % UTC; APOE RNA (% UTC) (human APOE RNA [2]; 205 nM): 90 % UTC; APOE RNA (% UTC) (human APOE RNA [2]; 512 nM): 75 % UTC; APOE RNA (% UTC) (human APOE RNA [2]; 1,280 nM): 59 % UTC; APOE RNA (% UTC) (human APOE RNA [2]; 3,200 nM): 42 % UTC; APOE RNA (% UTC) (human APOE RNA [2]; 8,000 nM): 26 % UTC; APOE RNA (% UTC) (human APOE RNA [2]; 20,000 nM): 12 % UTC; IC50 (human APOE RNA [2]): 2180 nM
4 | 1757567 (eA*e[5mC]eTeTeG*dG*dT*dG*dA*dA*dT*d[5mC]*dT*dT*dT*kAeTeT*eA*eA; antisense) [Compound 1757567] | 80 % control | 65 % control | – | – | – | – | – | – | – | – | – | – | – | – | – | – | – | APOE RNA (% UTC) (human APOE RNA [2]; 5 nM): 103 % UTC; APOE RNA (% UTC) (human APOE RNA [2]; 13 nM): 108 % UTC; APOE RNA (% UTC) (human APOE RNA [2]; 33 nM): 97 % UTC; APOE RNA (% UTC) (human APOE RNA [2]; 82 nM): 91 % UTC; APOE RNA (% UTC) (human APOE RNA [2]; 205 nM): 95 % UTC; APOE RNA (% UTC) (human APOE RNA [2]; 512 nM): 64 % UTC; APOE RNA (% UTC) (human APOE RNA [2]; 1,280 nM): 59 % UTC; APOE RNA (% UTC) (human APOE RNA [2]; 3,200 nM): 37 % UTC; APOE RNA (% UTC) (human APOE RNA [2]; 8,000 nM): 19 % UTC; APOE RNA (% UTC) (human APOE RNA [2]; 20,000 nM): 23 % UTC; IC50 (human APOE RNA [2]): 1820 nM
5 | 1779701 (e[5mC]*eTeT*kG*kG*dT[ms]dG[ms]dA[ms]dA[ms]dT*d[5mC]*dT*dT*dT*dA[ms]dT*eT*eA*eA*eA; antisense) [Compound 1779701] | 56 % control | 24 % control | – | – | – | – | – | – | – | – | – | – | – | – | – | – | – | –
6 | 1736534 (e[5mC]*eT*eT*eG*eGeT*dG[ms]dA[ms]dA[ms]dT*d[5mC]*dT*dT*dT*dA[ms]dT*kT*kA*eA*eA; antisense) [Compound 1736534] | – | – | 31 % control | 55 % control | 46 % control | 34 % control | 890 nM | 99 % UTC | 110 % UTC | 93 % UTC | 103 % UTC | 65 % UTC | 50 % UTC | 45 % UTC | 24 % UTC | 19 % UTC | 25 % UTC | –
7 | 1736529 (e[5mC]*eT*eT*eG*eG*eTdG[ms]dA[ms]dA[ms]dT*d[5mC]*dT*dT*dT*dA[ms]dT*kT*kA*eA*eA; antisense) [Compound 1736529] | – | – | 51 % control | 46 % control | 60 % control | 28 % control | 1120 nM | 92 % UTC | 102 % UTC | 92 % UTC | 115 % UTC | 75 % UTC | 56 % UTC | 45 % UTC | 29 % UTC | 13 % UTC | 30 % UTC | –
8 | 1779970 (e[5mC]*eTeTkG*kG*eT*dG[ms]dA[ms]dA*dT*d[5mC]*dT*dT*dT*dA*dT*eT*eA*eA*eA; antisense) [Compound 1779970] | 63 % control | 35 % control | – | – | – | – | – | – | – | – | – | – | – | – | – | – | – | –
9 | 1736535 (e[5mC]*eT*eT*eG*eGkT*dG[ms]dA[ms]dA[ms]dT*d[5mC]*dT*dT*dT*dA[ms]dT*eT*eA*eA*eA; antisense) [Compound 1736535] | – | – | 39 % control | 63 % control | 47 % control | 26 % control | 1660 nM | 90 % UTC | 96 % UTC | 99 % UTC | 93 % UTC | 67 % UTC | 69 % UTC | 53 % UTC | 24 % UTC | 51 % UTC | 13 % UTC | –
10 | 1736531 (e[5mC]*eT*eT*eG*eG*kTdG[ms]dA[ms]dA[ms]dT*d[5mC]*dT*dT*dT*dA[ms]dT*eT*eA*eA*eA; antisense) [Compound 1736531] | – | – | 42 % control | 52 % control | 54 % control | 74 % control | 940 nM | 97 % UTC | 91 % UTC | 89 % UTC | 86 % UTC | 77 % UTC | 53 % UTC | 49 % UTC | 33 % UTC | 12 % UTC | 20 % UTC | –
11 | 1757583 (eT*eTeGeGeT*dG*dA*dA*dT*d[5mC]*dT*dT*dT*dA*dT*kTeAeA*eA*e[5mC]; antisense) [Compound 1757583] | 97 % control | 100 % control | – | – | – | – | – | – | – | – | – | – | – | – | – | – | – | –
12 | 1736492 (e[5mC]*eTeT*eG*eG*eT*dG[ms]dA[ms]dA[ms]dT*d[5mC]*dT*dT*dT*dA[ms]dT*kT*eA*eA*eA; antisense) [Compound 1736492] | – | – | 45 % control | 46 % control | 53 % control | 52 % control | 940 nM | 95 % UTC | 87 % UTC | 76 % UTC | 82 % UTC | 71 % UTC | 52 % UTC | 52 % UTC | 41 % UTC | 15 % UTC | 20 % UTC | –
